In patent US6218398A, “Nocathiacin antibiotics” (Bristol-Myers Squibb Company, priority 1999, dated 2001):
≈ marks a conversion by molar mass, not a printed value. Read-outs that look alike come from different tables or passages of the source.

Legend:
[1] = tested on: Streptococcus pneumoniae A9585; assay: MIC by conventional serial broth dilution assay; type: cell-based
[2] = tested on: Streptococcus pneumoniae/penicillin intermediate A27881; assay: MIC by conventional serial broth dilution assay; type: cell-based
[3] = tested on: Streptococcus pneumoniae/penicillin resistant A28272; assay: MIC by conventional serial broth dilution assay; type: cell-based
[4] = tested on: Streptococcus pyogenes A9604; assay: MIC by conventional serial broth dilution assay; type: cell-based
[5] = tested on: Enterococcus faecalis A20688; assay: MIC by conventional serial broth dilution assay; type: cell-based
[6] = tested on: Enterococcus faecalis A27519; assay: MIC by conventional serial broth dilution assay; type: cell-based
[7] = tested on: Enterococcus faecium A24885; assay: MIC by conventional serial broth dilution assay; type: cell-based
[8] = tested on: Enterococcus faecium/thiostrepton resistant (10 ug/ml) SC15829; assay: MIC by conventional serial broth dilution assay; type: cell-based
[9] = tested on: Enterococcus avium A27456; assay: MIC by conventional serial broth dilution assay; type: cell-based
[10] = tested on: Staphylococcus aureus A9537; assay: MIC by conventional serial broth dilution assay; type: cell-based
[11] = tested on: Staphylococcus aureus/β-lactamase positive A15090; assay: MIC by conventional serial broth dilution assay; type: cell-based
[12] = tested on: Staphylococcus aureus/QC/ATCC#29213 A24407; assay: MIC by conventional serial broth dilution assay; type: cell-based
[13] = tested on: Staphylococcus aureus/hetero methicillin resistant A27218; assay: MIC by conventional serial broth dilution assay; type: cell-based
[14] = tested on: Staphylococcus aureus/homo methicillin resistant A27223; assay: MIC by conventional serial broth dilution assay; type: cell-based
Micrococcus luteus A9852 = assay: MIC by conventional serial broth dilution assay; type: cell-based
Bacillus subtilis A9506A = assay: MIC by conventional serial broth dilution assay; type: cell-based
[15] = tested on: Staphylococcus epidermidis A24548; assay: MIC by conventional serial broth dilution assay; type: cell-based
[16] = tested on: Staphylococcus haemolyticus A27298; assay: MIC by conventional serial broth dilution assay; type: cell-based
Escherichia coli A15119 = assay: MIC by conventional serial broth dilution assay; type: cell-based
Escherichia coli A22292 = assay: MIC by conventional serial broth dilution assay; type: cell-based
[17] = tested on: Escherichia coli/AcrA::Kan A28901; assay: MIC by conventional serial broth dilution assay; type: cell-based
[18] = tested on: Salmonella enteritidis A9531; assay: MIC by conventional serial broth dilution assay; type: cell-based; conditions: Salmonella enterica
[19] = tested on: Moraxella catarrhalis/β-lactamase positive A22344; assay: MIC by conventional serial broth dilution assay; type: cell-based
[20] = tested on: Moraxella catarrhalis/β-lactamase positive A25409; assay: MIC by conventional serial broth dilution assay; type: cell-based
[21] = tested on: Haemophilus influenzae/β-lactamase negative A20191; assay: MIC by conventional serial broth dilution assay; type: cell-based
[22] = tested on: Haemophilus influenzae/β-lactamase negative A20183; assay: MIC by conventional serial broth dilution assay; type: cell-based
[23] = tested on: Haemophilus influenzae/β-lactamase positive A21515; assay: MIC by conventional serial broth dilution assay; type: cell-based
Salmonella/WT A27207 = assay: MIC by conventional serial broth dilution assay; type: cell-based
Salmonella/RE A27208 = assay: MIC by conventional serial broth dilution assay; type: cell-based
[24] = tested on: Staphylococcus aureus A15090; assay: systemic Staph. aureus infection model in mice; type: in vivo, female ICR mice infected with Staphylococcus aureus; conditions: subcutaneous
Procedure: Nocathiacin I was evaluated for antibiotic activity in vivo, in a systemic infection model using female ICR mice. The animals were infected IP with 6.5×10^6 CFU of an overnight culture of Staphylococcus aureus A15090 suspended in 7% mucin. Nocathiacin I was dissolved in a test formulation consisting of 10% DMSO, 5% Tween 80 and 85% water. The solution was administered subcutaneously at 100 mg/kg total dose (2×50 mg/kg doses at 1 and 4 hours post-infection). […] The PD50 of nocathiacin I was determined to be <6.25 mg/kg.

Gram-positive bacteria = assay: in vitro activity against Gram-positive bacteria; type: cell-based; conditions: e.g. multiple drug resistant Enterococcus faecium
[25] = β-lactamase positive, read-out: MIC
[26] = β-lactamase negative, read-out: MIC

C=C(NC(=O)c1csc(-c2nc3c(cc2O)-c2nc(cs2)C(=O)NC(C(C)O)C(=O)NC(=C(C)OC)c2nc(cs2)C(=O)NC2c4nc(cs4)C(=O)NC(COC(=O)c4c5c6c(cccc6n4O)COC(=O)C(OC4CC(C)(O)C(N(C)C)C(C)O4)C2OC5)c2nc-3cs2)n1)C(N)=O (stereo not shown) [Nocathiacin I]
MIC [1]: 1 ng/mL (≈ 0.000696 µM) | MIC [2]: 1 ng/mL (≈ 0.000696 µM) | MIC [3]: 1 ng/mL (≈ 0.000696 µM) | MIC [4]: 0.001 µg/mL (≈ 0.000696 µM) | MIC ([5]; A20688): 0.03 µg/mL (≈ 0.0209 µM) | MIC ([5]; A20688, + 50% calf serum): 0.25 µg/mL | MIC [6]: 0.03 µg/mL (≈ 0.0209 µM) | MIC [7]: 0.015 µg/mL (≈ 0.0104 µM) | MIC [8]: 0.125 µg/mL (≈ 0.087 µM) | MIC [9]: 0.015 µg/mL (≈ 0.0104 µM) | MIC [10]: 0.001 µg/mL (≈ 0.000696 µM) | MIC ([11]; + 50% calf serum): 0.015 µg/mL | MIC ([11]; β-lactamase positive): 0.007 µg/mL (≈ 0.00487 µM) | MIC ([12]; ATCC29213): 7 ng/mL (≈ 0.00487 µM) | MIC ([13]; + 50% calf serum): 0.007 µg/mL | MIC ([13]; hetero methicillin resistant): 0.003 µg/mL (≈ 0.00209 µM) | MIC ([14]; + 50% calf serum): 1 ng/mL | MIC ([14]; homo methicillin resistant): 3 ng/mL (≈ 0.00209 µM) | MIC (Micrococcus luteus A9852): 0.003 µg/mL (≈ 0.00209 µM) | MIC (Bacillus subtilis A9506A): 0.001 µg/mL (≈ 0.000696 µM) | MIC [15]: 3 ng/mL (≈ 0.00209 µM) | MIC [16]: 0.03 µg/mL (≈ 0.0209 µM) | MIC (Escherichia coli A15119): > 128 µg/mL | MIC (Escherichia coli A22292): > 128 µg/mL | MIC [17]: > 128 µg/mL | MIC [18]: > 128 µg/mL | MIC [19]: 0.06 µg/mL (≈ 0.0417 µM) | MIC [20]: 0.06 µg/mL (≈ 0.0417 µM) | MIC [21]: > 128 µg/mL | MIC [22]: > 128 µg/mL | MIC [23]: > 128 µg/mL | MIC (Salmonella/WT A27207): > 128 µg/mL | MIC (Salmonella/RE A27208): > 128 µg/mL | ED50 ([24]; Staphylococcus aureus, A15090, sc, systemic infection model, female ICR mice, read-out: PD50): < 6.25 mg/kg | signs of toxicity ([24]; 100 mg/kg total dose (2×50 mg/kg at 1 and 4 hours post-infection)): no signs of toxicity | animals survived the duration of the experiment ([24]; 100 mg/kg total dose (2×50 mg/kg at 1 and 4 hours post-infection), IP infection 6.5×10^6 CFU): Nine out of nine | inhibitory activity against Gram-positive bacteria (Gram-positive bacteria): inhibitory activity at the nanomolar level

C=C(NC(=O)c1csc(-c2nc3c(cc2O)-c2nc(cs2)C(=O)NC(C(C)O)C(=O)NC(=C(C)OC)c2nc(cs2)C(=O)NC2c4nc(cs4)C(=O)NC(COC(=O)c4[nH]c5cccc6c5c4COC2C(OC2CC(C)(O)C(N(C)C)C(C)O2)C(=O)OC6)c2nc-3cs2)n1)C(N)=O (stereo not shown) [Nocathiacin II]
MIC [1]: 15 ng/mL (≈ 0.0106 µM) | MIC [2]: 15 ng/mL (≈ 0.0106 µM) | MIC [3]: 15 ng/mL (≈ 0.0106 µM) | MIC [4]: 0.125 µg/mL (≈ 0.0879 µM) | MIC ([5]; A20688): 0.5 µg/mL (≈ 0.352 µM) | MIC ([5]; A20688, + 50% calf serum): 0.5 µg/mL | MIC [6]: 0.5 µg/mL (≈ 0.352 µM) | MIC [7]: 0.5 µg/mL (≈ 0.352 µM) | MIC [8]: 0.5 µg/mL (≈ 0.352 µM) | MIC [9]: 0.5 µg/mL (≈ 0.352 µM) | MIC [10]: 0.06 µg/mL (≈ 0.0422 µM) | MIC ([11]; + 50% calf serum): 0.5 µg/mL | MIC ([11]; β-lactamase positive): 0.5 µg/mL (≈ 0.352 µM) | MIC ([12]; ATCC29213): 500 ng/mL (≈ 0.352 µM) | MIC ([13]; + 50% calf serum): 0.5 µg/mL | MIC ([13]; hetero methicillin resistant): 0.5 µg/mL (≈ 0.352 µM) | MIC ([14]; + 50% calf serum): 125 ng/mL | MIC ([14]; homo methicillin resistant): 125 ng/mL (≈ 0.0879 µM) | MIC (Micrococcus luteus A9852): 0.125 µg/mL (≈ 0.0879 µM) | MIC (Bacillus subtilis A9506A): 0.125 µg/mL (≈ 0.0879 µM) | MIC [15]: 125 ng/mL (≈ 0.0879 µM) | MIC [16]: 0.25 µg/mL (≈ 0.176 µM) | MIC (Escherichia coli A15119): > 128 µg/mL | MIC (Escherichia coli A22292): > 128 µg/mL | MIC [17]: > 128 µg/mL | MIC [18]: > 128 µg/mL | MIC [19]: 0.125 µg/mL (≈ 0.0879 µM) | MIC [20]: 0.125 µg/mL (≈ 0.0879 µM) | MIC (Salmonella/WT A27207): > 128 µg/mL | MIC (Salmonella/RE A27208): > 128 µg/mL | inhibitory activity against Gram-positive bacteria (Gram-positive bacteria): inhibitory activity at the nanomolar level

C=C(NC(=O)c1csc(-c2nc3c(cc2O)-c2nc(cs2)C(=O)NC(C(C)O)C(=O)NC(=C(C)OC)c2nc(cs2)C(=O)NC2c4nc(cs4)C(=O)NC(COC(=O)c4c5c6c(cccc6n4O)COC(=O)C(O)C2OC5)c2nc-3cs2)n1)C(N)=O (stereo not shown) [Nocathiacin III]
MIC ([1]; read-out: MIC): ≤ 2 ng/mL | MIC ([2]; penicillin intermediate, read-out: MIC): ≤ 2 ng/mL | MIC ([3]; penicillin resistant, read-out: MIC): ≤ 2 ng/mL | MIC ([5]; A20688, + 50% calf serum, read-out: MIC): 0.25 µg/mL | MIC ([5]; A20688, read-out: MIC): 0.03 µg/mL (≈ 0.0237 µM) | MIC ([6]; read-out: MIC): 0.03 µg/mL (≈ 0.0237 µM) | MIC ([7]; read-out: MIC): 0.03 µg/mL (≈ 0.0237 µM) | MIC ([9]; read-out: MIC): 0.03 µg/mL (≈ 0.0237 µM) | MIC ([11]; + 50% calf serum, read-out: MIC): 0.03 µg/mL | MIC [11, 25]: 0.007 µg/mL (≈ 0.00553 µM) | MIC ([12]; ATCC29213, QC/ATCC#29213, read-out: MIC): 7 ng/mL (≈ 0.00553 µM) | MIC ([14]; homo methicillin resistant, read-out: MIC): 7 ng/mL (≈ 0.00553 µM) | MIC ([15]; read-out: MIC): 7 ng/mL (≈ 0.00553 µM) | MIC ([16]; read-out: MIC): 0.007 µg/mL (≈ 0.00553 µM) | MIC [19, 25]: 0.06 µg/mL (≈ 0.0474 µM) | MIC [20, 25]: 0.06 µg/mL (≈ 0.0474 µM) | MIC [21, 26]: > 64 µg/mL | MIC [22, 26]: > 64 µg/mL | MIC [23, 25]: > 64 µg/mL | inhibitory activity against Gram-positive bacteria (Gram-positive bacteria): inhibitory activity at the nanomolar level
